Reference: the supplement of paper PMC6315032

Columns and labels:
Assay in all cases: apparent dissociation constant (pKDapp, Kinobeads competition, Cheng-Prusoff corrected) (-log10 M); higher = tighter binding
ACVR2B = ACVR2B (UniProt Q13705); details: affinity matrix / lysate: Kinobeads, mixed HEK293/K-562/placenta lysate
BMPR2 = BMPR2 (UniProt Q13873); details: affinity matrix / lysate: Kinobeads, mixed HEK293/K-562/placenta lysate
BTK = BTK (UniProt Q06187); details: affinity matrix / lysate: Kinobeads, mixed HEK293/K-562/placenta lysate
CAMK2D = CAMK2D (UniProt Q13557); details: affinity matrix / lysate: Kinobeads, mixed HEK293/K-562/placenta lysate
CDK5 = CDK5 (UniProt Q00535); details: affinity matrix / lysate: Kinobeads, mixed HEK293/K-562/placenta lysate
Sequence of CDK5 (Q00535 whole entry, looked up): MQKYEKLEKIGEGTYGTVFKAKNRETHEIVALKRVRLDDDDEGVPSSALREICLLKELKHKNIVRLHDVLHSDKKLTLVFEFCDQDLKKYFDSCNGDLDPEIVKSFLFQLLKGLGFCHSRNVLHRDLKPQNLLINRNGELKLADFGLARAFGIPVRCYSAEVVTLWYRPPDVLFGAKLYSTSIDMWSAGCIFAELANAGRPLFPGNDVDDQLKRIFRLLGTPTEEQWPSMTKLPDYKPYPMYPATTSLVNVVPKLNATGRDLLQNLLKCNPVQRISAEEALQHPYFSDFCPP

DAPK3 = DAPK3 (UniProt O43293); details: affinity matrix / lysate: Kinobeads, mixed HEK293/K-562/placenta lysate
DYRK1A = DYRK1A (UniProt Q13627); details: affinity matrix / lysate: Kinobeads, mixed HEK293/K-562/placenta lysate
EPHB6 = EPHB6 (UniProt O15197); details: affinity matrix / lysate: Kinobeads, mixed HEK293/K-562/placenta lysate
FES = FES (UniProt P07332); details: affinity matrix / lysate: Kinobeads, mixed HEK293/K-562/placenta lysate
FGFR1 = FGFR1 (UniProt P11362); details: affinity matrix / lysate: Kinobeads, mixed HEK293/K-562/placenta lysate
FGFR3 = FGFR3 (UniProt P22607); details: affinity matrix / lysate: Kinobeads, mixed HEK293/K-562/placenta lysate
LATS2 = LATS2 (UniProt Q9NRM7); details: affinity matrix / lysate: Kinobeads, mixed HEK293/K-562/placenta lysate
LRRK2 = LRRK2 (UniProt Q5S007); details: affinity matrix / lysate: Kinobeads, mixed HEK293/K-562/placenta lysate
Sequence of LRRK2 (Q5S007 whole entry): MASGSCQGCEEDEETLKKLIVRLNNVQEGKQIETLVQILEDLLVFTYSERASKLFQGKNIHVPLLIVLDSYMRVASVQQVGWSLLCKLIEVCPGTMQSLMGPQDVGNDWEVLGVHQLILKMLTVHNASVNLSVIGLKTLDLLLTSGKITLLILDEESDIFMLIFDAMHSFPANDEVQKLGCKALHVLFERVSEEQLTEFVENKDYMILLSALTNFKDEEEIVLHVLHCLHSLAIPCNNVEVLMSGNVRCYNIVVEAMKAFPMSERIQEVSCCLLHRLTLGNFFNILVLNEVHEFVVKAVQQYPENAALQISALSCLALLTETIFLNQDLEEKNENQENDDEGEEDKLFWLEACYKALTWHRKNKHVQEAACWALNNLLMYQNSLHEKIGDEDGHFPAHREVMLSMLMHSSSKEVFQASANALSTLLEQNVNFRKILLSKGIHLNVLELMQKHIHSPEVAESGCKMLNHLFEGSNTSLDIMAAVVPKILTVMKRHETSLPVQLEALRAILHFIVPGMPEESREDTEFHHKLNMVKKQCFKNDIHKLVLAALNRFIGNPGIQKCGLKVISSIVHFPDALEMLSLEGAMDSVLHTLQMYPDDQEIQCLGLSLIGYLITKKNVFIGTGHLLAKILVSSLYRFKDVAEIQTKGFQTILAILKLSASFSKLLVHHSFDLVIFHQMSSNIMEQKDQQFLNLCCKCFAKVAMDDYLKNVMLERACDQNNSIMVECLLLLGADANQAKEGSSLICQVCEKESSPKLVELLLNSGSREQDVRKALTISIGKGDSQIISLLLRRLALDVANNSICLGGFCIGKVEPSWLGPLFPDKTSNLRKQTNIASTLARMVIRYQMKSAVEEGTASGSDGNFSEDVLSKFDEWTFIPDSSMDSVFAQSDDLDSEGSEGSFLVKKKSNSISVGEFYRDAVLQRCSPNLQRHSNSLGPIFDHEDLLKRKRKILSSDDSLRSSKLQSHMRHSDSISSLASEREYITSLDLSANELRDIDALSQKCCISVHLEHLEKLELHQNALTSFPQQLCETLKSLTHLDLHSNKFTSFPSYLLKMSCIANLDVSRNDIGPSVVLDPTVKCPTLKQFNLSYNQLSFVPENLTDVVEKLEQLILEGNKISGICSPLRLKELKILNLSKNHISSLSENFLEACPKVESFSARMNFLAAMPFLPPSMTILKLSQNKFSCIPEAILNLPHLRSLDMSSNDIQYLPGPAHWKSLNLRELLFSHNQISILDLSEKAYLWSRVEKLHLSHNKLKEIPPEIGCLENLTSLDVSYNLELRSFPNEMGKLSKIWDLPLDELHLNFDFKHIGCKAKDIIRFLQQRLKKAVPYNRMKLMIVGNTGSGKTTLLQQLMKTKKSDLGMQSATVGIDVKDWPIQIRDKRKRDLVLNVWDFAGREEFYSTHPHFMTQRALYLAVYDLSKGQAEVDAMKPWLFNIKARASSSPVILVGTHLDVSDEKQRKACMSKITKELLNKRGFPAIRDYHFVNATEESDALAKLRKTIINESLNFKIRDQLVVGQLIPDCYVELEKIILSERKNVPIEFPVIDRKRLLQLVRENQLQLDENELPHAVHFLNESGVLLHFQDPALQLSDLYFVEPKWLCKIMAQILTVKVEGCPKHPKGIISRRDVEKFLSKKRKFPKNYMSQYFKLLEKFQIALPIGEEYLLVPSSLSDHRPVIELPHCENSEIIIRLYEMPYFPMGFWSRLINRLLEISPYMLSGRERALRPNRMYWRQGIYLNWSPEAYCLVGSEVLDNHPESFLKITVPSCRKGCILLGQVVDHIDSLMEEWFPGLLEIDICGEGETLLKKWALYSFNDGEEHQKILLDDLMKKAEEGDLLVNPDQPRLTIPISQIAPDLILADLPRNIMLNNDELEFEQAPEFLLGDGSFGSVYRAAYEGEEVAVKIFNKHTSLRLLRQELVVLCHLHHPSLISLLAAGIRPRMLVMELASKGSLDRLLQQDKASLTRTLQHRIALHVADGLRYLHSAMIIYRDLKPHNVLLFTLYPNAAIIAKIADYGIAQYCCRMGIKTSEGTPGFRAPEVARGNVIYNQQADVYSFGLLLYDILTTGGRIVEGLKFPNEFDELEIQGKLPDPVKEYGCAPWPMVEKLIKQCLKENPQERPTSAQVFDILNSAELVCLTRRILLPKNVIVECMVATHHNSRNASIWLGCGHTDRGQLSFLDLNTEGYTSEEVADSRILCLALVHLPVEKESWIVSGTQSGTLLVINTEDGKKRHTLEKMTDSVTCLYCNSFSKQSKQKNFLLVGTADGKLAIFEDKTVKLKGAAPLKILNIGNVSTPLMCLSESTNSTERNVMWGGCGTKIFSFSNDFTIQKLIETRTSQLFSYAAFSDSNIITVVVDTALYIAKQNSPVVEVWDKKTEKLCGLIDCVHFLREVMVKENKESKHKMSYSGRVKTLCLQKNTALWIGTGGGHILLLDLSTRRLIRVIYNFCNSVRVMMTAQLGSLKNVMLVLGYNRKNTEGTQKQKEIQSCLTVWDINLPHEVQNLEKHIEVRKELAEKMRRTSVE

MAP3K3 = MAP3K3 (UniProt Q99759); details: affinity matrix / lysate: Kinobeads, mixed HEK293/K-562/placenta lysate
MAP4K4 = MAP4K4 (UniProt O95819); details: affinity matrix / lysate: Kinobeads, mixed HEK293/K-562/placenta lysate
MAPKAPK5 = MAPKAPK5 (UniProt Q8IW41); details: affinity matrix / lysate: Kinobeads, mixed HEK293/K-562/placenta lysate
MARK1 = MARK1 (UniProt Q9P0L2); details: affinity matrix / lysate: Kinobeads, mixed HEK293/K-562/placenta lysate
Sequence of MARK1 (Q9P0L2 whole entry, looked up): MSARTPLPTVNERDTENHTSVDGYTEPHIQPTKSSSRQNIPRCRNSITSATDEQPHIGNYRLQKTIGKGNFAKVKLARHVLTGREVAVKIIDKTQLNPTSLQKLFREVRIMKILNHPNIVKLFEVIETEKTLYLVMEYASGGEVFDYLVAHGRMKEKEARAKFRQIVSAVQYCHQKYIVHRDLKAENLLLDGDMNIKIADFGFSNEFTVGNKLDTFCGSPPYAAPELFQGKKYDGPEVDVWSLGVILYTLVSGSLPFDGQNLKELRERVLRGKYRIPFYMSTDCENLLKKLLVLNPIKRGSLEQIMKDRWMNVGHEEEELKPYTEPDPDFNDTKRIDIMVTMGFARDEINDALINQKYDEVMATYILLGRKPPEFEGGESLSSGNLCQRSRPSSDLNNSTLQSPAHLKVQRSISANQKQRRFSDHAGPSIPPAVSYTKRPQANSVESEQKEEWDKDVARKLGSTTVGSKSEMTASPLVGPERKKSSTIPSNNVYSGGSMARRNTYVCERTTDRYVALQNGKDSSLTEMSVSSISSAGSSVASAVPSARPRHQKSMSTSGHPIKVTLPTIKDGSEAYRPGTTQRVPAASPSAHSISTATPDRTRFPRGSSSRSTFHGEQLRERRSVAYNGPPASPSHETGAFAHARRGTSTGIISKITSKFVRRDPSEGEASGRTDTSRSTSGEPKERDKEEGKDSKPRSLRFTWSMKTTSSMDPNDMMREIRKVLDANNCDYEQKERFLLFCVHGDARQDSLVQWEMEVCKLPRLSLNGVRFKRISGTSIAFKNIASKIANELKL

MARK2 = MARK2 (UniProt Q7KZI7); details: affinity matrix / lysate: Kinobeads, mixed HEK293/K-562/placenta lysate
MKNK2 = MKNK2 (UniProt Q9HBH9); details: affinity matrix / lysate: Kinobeads, mixed HEK293/K-562/placenta lysate
Sequence of MKNK2 (Q9HBH9 whole entry, looked up): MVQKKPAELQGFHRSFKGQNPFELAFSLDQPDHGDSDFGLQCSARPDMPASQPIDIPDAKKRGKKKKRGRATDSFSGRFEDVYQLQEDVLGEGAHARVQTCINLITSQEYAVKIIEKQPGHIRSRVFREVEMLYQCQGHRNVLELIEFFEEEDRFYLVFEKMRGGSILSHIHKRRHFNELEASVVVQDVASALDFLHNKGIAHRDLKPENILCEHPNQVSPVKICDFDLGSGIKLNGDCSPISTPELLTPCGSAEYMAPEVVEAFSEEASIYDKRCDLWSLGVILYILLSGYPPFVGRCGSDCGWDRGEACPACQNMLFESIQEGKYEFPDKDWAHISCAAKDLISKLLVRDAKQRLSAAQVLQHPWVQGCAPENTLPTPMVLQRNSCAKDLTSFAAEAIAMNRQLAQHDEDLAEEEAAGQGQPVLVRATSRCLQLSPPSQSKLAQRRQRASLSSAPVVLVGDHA

MST1R = MST1R (UniProt Q04912); details: affinity matrix / lysate: Kinobeads, mixed HEK293/K-562/placenta lysate
PCTK3 = PCTK3 (UniProt Q07002); details: affinity matrix / lysate: Kinobeads, mixed HEK293/K-562/placenta lysate
PDGFRA = PDGFRA (UniProt P16234); details: affinity matrix / lysate: Kinobeads, mixed HEK293/K-562/placenta lysate
PKN1 = PKN1 (UniProt Q16512); details: affinity matrix / lysate: Kinobeads, mixed HEK293/K-562/placenta lysate
PRKAA2 = PRKAA2 (UniProt P54646); details: affinity matrix / lysate: Kinobeads, mixed HEK293/K-562/placenta lysate
Sequence of PRKAA2 (P54646 whole entry, looked up): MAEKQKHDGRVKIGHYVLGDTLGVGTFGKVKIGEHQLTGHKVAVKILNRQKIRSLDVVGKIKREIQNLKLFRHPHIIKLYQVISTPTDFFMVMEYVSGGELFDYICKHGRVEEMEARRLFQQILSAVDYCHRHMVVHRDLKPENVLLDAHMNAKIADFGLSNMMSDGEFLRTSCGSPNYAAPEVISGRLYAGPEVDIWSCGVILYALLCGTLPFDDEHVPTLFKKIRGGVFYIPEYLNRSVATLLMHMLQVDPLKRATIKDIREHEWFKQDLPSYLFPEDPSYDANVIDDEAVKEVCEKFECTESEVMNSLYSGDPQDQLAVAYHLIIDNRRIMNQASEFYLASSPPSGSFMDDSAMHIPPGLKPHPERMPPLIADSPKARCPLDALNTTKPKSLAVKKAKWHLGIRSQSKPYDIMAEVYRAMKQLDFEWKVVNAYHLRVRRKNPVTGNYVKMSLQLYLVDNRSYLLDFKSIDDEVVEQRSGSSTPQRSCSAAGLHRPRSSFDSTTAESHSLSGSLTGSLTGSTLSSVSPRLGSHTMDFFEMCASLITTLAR

PRKCI = PRKCI (UniProt P41743); details: affinity matrix / lysate: Kinobeads, mixed HEK293/K-562/placenta lysate
PRKDC = PRKDC (UniProt P78527); details: affinity matrix / lysate: Lipid Kinobeads, mixed HeLa/Jurkat/K-562 lysate
RIPK2 = RIPK2 (UniProt O43353); details: affinity matrix / lysate: Kinobeads, mixed HEK293/K-562/placenta lysate
RPS6KA2 = RPS6KA2 (UniProt Q15349); details: affinity matrix / lysate: Kinobeads, mixed HEK293/K-562/placenta lysate
STRADA = STRADA (UniProt Q7RTN6); details: affinity matrix / lysate: Kinobeads, mixed HEK293/K-562/placenta lysate
Sequence of STRADA (Q7RTN6 whole entry): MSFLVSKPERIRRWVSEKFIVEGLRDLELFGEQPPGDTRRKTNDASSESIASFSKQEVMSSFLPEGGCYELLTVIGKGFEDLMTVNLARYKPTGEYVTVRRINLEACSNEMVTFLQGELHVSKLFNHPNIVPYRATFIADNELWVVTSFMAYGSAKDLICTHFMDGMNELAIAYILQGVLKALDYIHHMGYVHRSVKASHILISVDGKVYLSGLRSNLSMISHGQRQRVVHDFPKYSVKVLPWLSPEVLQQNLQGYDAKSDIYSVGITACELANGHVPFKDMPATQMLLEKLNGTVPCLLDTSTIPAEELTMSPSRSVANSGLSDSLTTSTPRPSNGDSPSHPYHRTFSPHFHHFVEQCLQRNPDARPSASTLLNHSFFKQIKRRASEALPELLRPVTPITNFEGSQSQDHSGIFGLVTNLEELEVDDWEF

TEC = TEC (UniProt P42680); details: affinity matrix / lysate: Kinobeads, mixed HEK293/K-562/placenta lysate
TYRO3 = TYRO3 (UniProt Q06418); details: affinity matrix / lysate: Kinobeads, mixed HEK293/K-562/placenta lysate
ULK3 = ULK3 (UniProt Q6PHR2); details: affinity matrix / lysate: Kinobeads, mixed HEK293/K-562/placenta lysate

Structure (SMILES): COc1ccc(-c2ccc3c(N4CCOC[C@@H]4C)nc(N4CCOC[C@@H]4C)nc3n2)cc1CO [AZD8055]
- apparent dissociation constant (-log10 M) (ACVR2B): < 6
- apparent dissociation constant (-log10 M) (BMPR2): < 6
- apparent dissociation constant (-log10 M) (BTK): < 6
- apparent dissociation constant (-log10 M) (CAMK2D): < 6
- apparent dissociation constant (-log10 M) (CDK5): < 6
- apparent dissociation constant (-log10 M) (DAPK3): < 6
- apparent dissociation constant (-log10 M) (DYRK1A): < 6
- apparent dissociation constant (-log10 M) (EPHB6): < 6
- apparent dissociation constant (-log10 M) (FES): < 6
- apparent dissociation constant (-log10 M) (FGFR1): < 6
- apparent dissociation constant (-log10 M) (FGFR3): < 6
- apparent dissociation constant (-log10 M) (LATS2): < 6
- apparent dissociation constant (-log10 M) (LRRK2): < 6
- apparent dissociation constant (-log10 M) (MAP3K3): < 6
- apparent dissociation constant (-log10 M) (MAP4K4): < 6
- apparent dissociation constant (-log10 M) (MAPKAPK5): < 6
- apparent dissociation constant (-log10 M) (MARK1): < 6
- apparent dissociation constant (-log10 M) (MARK2): < 6
- apparent dissociation constant (-log10 M) (MKNK2): < 6
- apparent dissociation constant (-log10 M) (MST1R): < 6
- apparent dissociation constant (-log10 M) (PCTK3): < 6
- apparent dissociation constant (-log10 M) (PDGFRA): < 6
- apparent dissociation constant (-log10 M) (PKN1): < 6
- apparent dissociation constant (-log10 M) (PRKAA2): < 6
- apparent dissociation constant (-log10 M) (PRKCI): < 6
- apparent dissociation constant (-log10 M) (PRKDC): 6.18
- apparent dissociation constant (-log10 M) (RIPK2): < 6
- apparent dissociation constant (-log10 M) (RPS6KA2): < 6
- apparent dissociation constant (-log10 M) (STRADA): < 6
- apparent dissociation constant (-log10 M) (TEC): < 6
- apparent dissociation constant (-log10 M) (TYRO3): < 6
- apparent dissociation constant (-log10 M) (ULK3): < 6

Structure (SMILES): CCNC(=O)Nc1ccc(-c2nc(N3CCOC[C@@H]3C)c3c(n2)C(C)(C)S(=O)(=O)C3)cc1 [CZ415]
- apparent dissociation constant (-log10 M) (ACVR2B): < 6
- apparent dissociation constant (-log10 M) (BMPR2): < 6
- apparent dissociation constant (-log10 M) (BTK): < 6
- apparent dissociation constant (-log10 M) (CAMK2D): < 6
- apparent dissociation constant (-log10 M) (CDK5): < 6
- apparent dissociation constant (-log10 M) (DAPK3): < 6
- apparent dissociation constant (-log10 M) (DYRK1A): < 6
- apparent dissociation constant (-log10 M) (EPHB6): < 6
- apparent dissociation constant (-log10 M) (FES): < 6
- apparent dissociation constant (-log10 M) (FGFR1): < 6
- apparent dissociation constant (-log10 M) (FGFR3): < 6
- apparent dissociation constant (-log10 M) (LATS2): < 6
- apparent dissociation constant (-log10 M) (LRRK2): < 6
- apparent dissociation constant (-log10 M) (MAP3K3): < 6
- apparent dissociation constant (-log10 M) (MAP4K4): < 6
- apparent dissociation constant (-log10 M) (MAPKAPK5): < 6
- apparent dissociation constant (-log10 M) (MARK1): < 6
- apparent dissociation constant (-log10 M) (MARK2): < 6
- apparent dissociation constant (-log10 M) (MKNK2): < 6
- apparent dissociation constant (-log10 M) (MST1R): < 6
- apparent dissociation constant (-log10 M) (PCTK3): < 6
- apparent dissociation constant (-log10 M) (PDGFRA): < 6
- apparent dissociation constant (-log10 M) (PKN1): < 6
- apparent dissociation constant (-log10 M) (PRKAA2): < 6
- apparent dissociation constant (-log10 M) (PRKCI): < 6
- apparent dissociation constant (-log10 M) (PRKDC): < 6
- apparent dissociation constant (-log10 M) (RIPK2): < 6
- apparent dissociation constant (-log10 M) (RPS6KA2): < 6
- apparent dissociation constant (-log10 M) (STRADA): < 6
- apparent dissociation constant (-log10 M) (TEC): < 6
- apparent dissociation constant (-log10 M) (TYRO3): < 6
- apparent dissociation constant (-log10 M) (ULK3): < 6
